Measured values reported in US11071720B2, “Cancer therapy” (UCL Business Ltd, priority 2016, dated 2021).

Legend:
MLL-AF6 = molecular target: T1, MLL-AF6 (Homo sapiens, UniProt P55196+Q03164); assay: Western blot analysis of MLL-fusion protein proteolysis in MLL-AF6 positive cell line SHI-I; type: cell-based; details: SHI-I cells
T1 construct: AF6 (AFDN, P55196) portion as fusion partner; host or cells: SHI-I (SHI-1) human leukaemic cell line
Description: (§1) Human leukaemic cell lines (DSMZ) were cultured in Roswell Park Memorial Institute (RPMI) medium (Invitrogen), supplemented with 10% heat-inactivated FCS, 100 U/ml Penicillin (Invitrogen), 100 μg/ml Streptomycin (Invitrogen) and 2 mM L-glutamine (Invitrogen) (complete RPMI), or in Iscove's Modified Dulbecco's Medium (IMDM) (Invitrogen) supplemented with 20% heat-inactivated FCS, 100 U/ml Penicillin (Invitrogen), 100 μg/ml Streptomycin (Invitrogen) and 2 mM L-glutamine (Invitrogen)(complete IMDM).
(§2) SHI-I (MLL-AF6), THP-I (MLL-AF9) and MV4-11 (MLL-AF4) cell lines were treated with 300 nM of Disulfiram (Aldrich) or concentrations indicated and 1 μM of Copper chloride (Acros Organics) unless indicated otherwise for 16 hours.
(§3) Cells were lysed in Sample Reducing Buffer (200 mM DTT, 2% sodium dodecyl sulphate (SDS), 10% v/v Glycerol, 0.02% v/v Bromophenol Blue, 125 mM Tris HCl pH 6.8). The lysates were incubated for 5 minutes at 100° C., vortexed for 10 seconds and centrifuged at 13,200 rpm for 10 minutes at 4° C. The total cell lysate was then collected and stored at −20° C. or loaded immediately onto a polyacrylamide gel.
The whole cell lysate was electrophoresed in 7% Bis-Tris polyacrylamide gel and transferred to a odyssey nitrocellulose membrane (LI-COR).
After blocked for 1 hr for non-specific binding in PBS-T with 5% of non-fat milk, blots were incubated with primary antibodies (MLL, mouse monoclonal 1:2000, Millipore; Vinculin, rabbit monoclonal 1:10000, Abcam) overnight at 4° C., followed by secondary IRDye conjugated antibodies (mouse IEDye800CW 1:10000; rabbit IRDye680RD 1:10000, LI-COR) at room temperature.
Blots were visualized using the Odyssey CLx.
SHI-I (MLL-AF6), and THP-I (MLL-AF9) cell lines were treated with 300 nM of Diethyldithiocarbamate (Aldrich) and 1 μM of Copper chloride (Acros Organics) unless indicated otherwise for 16 hours.
SHI-I (MLL-AF6) cell line was treated with 100 nM or 75 nm of Disulfiram (Aldrich) and 100 nM of Auranofin or 10 μM of Curcumin supplemented with 1 μM of Copper chloride (Acros Organics) for 16 hours.

MLL-AF9 = molecular target: T2, MLL-AF9 (Homo sapiens, UniProt P42568+Q03164); assay: Western blot analysis of MLL-fusion protein proteolysis in MLL-AF9 cells (V6MA.3, THP-1); type: cell-based
T2 construct: AF9 (MLLT3, P42568) portion as fusion partner; host or cells: THP-1 (endogenous fusion); V6MA.3 (MLL-AF9 immortalised cord blood)
Description: as §1, §2, §3
The whole cell lysate was electrophoresed in 7% Bis-Tris polyacrylamide gel and transferred to a odyssey nitrocellulose membrane (LI-COR). […]

MLL fusion proteins = assay: Western blot, proteolysis of MLL fusion proteins (effect of copper; primary patient sample); type: cell-based, human
[1] = test system: MLL-AF9 and MLL-AF4 profiles; assay: Gene Set Enrichment Analysis of treated SHI-I cells; type: cell-based, human; details: 16 hrs in the presence of copper
Description: as §2

MLL rearranged cells = assay: Methylcellulose colony formation assay; type: cell-based, human; details: 300 nM disulfiram; MLL rearranged cells vs other leukemic cell lines and CD34+ cord blood
Description: FIGS. 6A and 6B show, as explained in Example 1: in FIG. 6A, relative CFU corresponding to colony formation in MLL rearranged cells, other leukemic cell lines and CD34+ cord blood, in a methylcellulose colony formation assay after treatment of the cells with 300 nM disulfiram (equal numbers of cells were plated and normalised CFU frequency is shown, with error bars representing standard deviation); and, in FIG. 6B, the corresponding treated and control plates themselves.

HOXA9/HOXA10 and MEIS1 = assay: RT-qPCR analysis of MLL target gene expression in SHI-I cells; type: cell-based, human; details: 16 hrs of treatment
Description: as §2

H3K4me3 = assay: Western blot analysis of H3K4me3 in MLL rearranged cell lines; type: cell-based, human; details: various MLL rearranged cell lines, 16 hrs in the presence of copper
[2] = 16 hrs treatment in the presence of copper

T1 sequence (Q03164 1146-1214 limits assumed, one chain of several): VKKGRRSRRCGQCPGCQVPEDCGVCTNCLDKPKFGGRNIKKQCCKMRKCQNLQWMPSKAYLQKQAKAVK
T2 sequence (Q03164 1147-1203 limits assumed, one chain of several): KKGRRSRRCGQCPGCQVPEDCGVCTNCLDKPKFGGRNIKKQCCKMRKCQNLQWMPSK

Row | SMILES | proteolysis of the MLL-fusion protein (Western blot) (MLL-AF6; [2]) | proteolysis of the MLL-fusion protein (Western blot) (MLL-AF9; MLL-AF9 positive cell line THP-1, 16 hrs treatment in the presence of copper) | proteolysis of the MLL-fusion protein (Western blot) (MLL fusion proteins) | proteolysis of the MLL-fusion protein (Western blot) (MLL-AF6; 16 hrs, in the presence of copper, with or without thioredoxin reductase inhibitors Auranofin and Curcumin) | Gene Set Enrichment Analysis versus published MLL-AF9 and MLL-AF4 profiles [1] | relative CFU corresponding to colony formation (MLL rearranged cells) | MLL target gene expression level of HOXA9/HOXA10 and MEIS1, normalised to 18S (RT-qPCR) (HOXA9/HOXA10 and MEIS1) | H3K4me3 level (Western blot) (H3K4me3) | proteolysis of the MLL-fusion protein (Western blot) (MLL-AF9; MLL-AF9 immortalised cord blood V6MA.3, 16 hrs treatment in the presence of copper)
1 | CCN(CC)C(=S)S [diethyldithiocarbamate, Diethyldithiocarbamic acid] | showing proteolysis of the MLL-fusion protein | showing proteolysis of the MLL-fusion protein |  |  |  |  |  |  | 
2 | CCN(CC)C(=S)SSC(=S)N(CC)CC [disulfiram] | showing proteolysis of the MLL-fusion protein |  | showing proteolysis of the MLL-fusion protein in a primary patient sample | showing proteolysis of the MLL-fusion protein | negative enrichment to both published MLL-AF9 and MLL-AF4 profiles | substantially higher effect than in other (non-MLL) leukemic cell lines and CD34+ cord blood | efficient down-regulation of the target genes | showing a decrease in H3K4me3 | showing proteolysis of the MLL-fusion protein
